Data from PubChem BioAssay (NCI).
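Step 1: Grow cells in 96-well plates. Step 2: Expose to compound for 48 hours at 5 concentrations. Step 3: Interpolate endpoints linearly; if unreached, use highest concentration. At the GI50, growth is halved. TGI is the concentration that stops growth completely.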

Columns and labels:
Assay in all cases: growth of human tumour cells (NCI), 48 h
[1] = system: SW-620 colon
[2] = system: MALME-3M melanoma
[3] = system: OVCAR-5 ovarian
[4] = system: DU-145 prostate
[5] = system: HCC-2998 colon
[6] = system: SK-MEL-2 melanoma
[7] = system: SF-539 CNS
[8] = system: SK-MEL-5 melanoma
[9] = system: HT29 colon
[10] = system: EKVX NSCLC
[11] = system: HS 578T breast
[12] = system: HCT-116 colon
[13] = system: RXF 393 renal
[14] = system: 786-0 renal
[15] = system: PC-3 prostate
[16] = system: COLO 205 colon
[17] = system: T-47D breast
[18] = system: UO-31 renal
[19] = system: RPMI-8226 leukemia
[20] = system: MOLT-4 leukemia
[21] = system: IGROV1 ovarian
[22] = system: MDA-MB-231 breast
[23] = system: HCT-15 colon
[24] = system: SNB-19 CNS
[25] = system: CCRF-CEM leukemia
[26] = system: UACC-257 melanoma
[27] = system: MDA-MB-435
[28] = system: CAKI-1 renal
[29] = system: SK-OV-3 ovarian
[30] = system: K-562 leukemia
[31] = system: NCI-H23 lung
[32] = system: MCF7 breast
[33] = system: A549 NSCLC
[34] = system: SNB-75 CNS
[35] = system: NCI-H226 lung
[36] = system: SN12C renal
[37] = system: M14 melanoma
[38] = system: KM12 colon
[39] = system: HOP-62 NSCLC
[40] = system: OVCAR-3 ovarian
[41] = system: SR leukemia
[42] = system: LOX IMVI melanoma
[43] = system: NCI/ADR-RES ovarian
[44] = system: SF-295 CNS
[45] = system: BT-549 breast
[46] = system: OVCAR-4 ovarian
[47] = system: SK-MEL-28 melanoma
[48] = system: NCI-H522 lung
[49] = system: OVCAR-8 ovarian
[50] = system: U251 CNS
[51] = system: ACHN renal
[52] = system: SF-268 CNS
[53] = system: UACC-62 melanoma
[54] = system: NCI-H460 lung
[55] = system: HL-60(TB) leukemia
[56] = system: TK-10 renal

COc1ccc(-c2c(-c3ccc(C#N)c(F)c3)nc(N3CCC(N)CC3)n(C)c2=O)cc1F
GI50 [1]: 24.2 µM
TGI [1]: 96.2 µM
GI50 [2]: 13.4 µM
TGI [2]: 27.5 µM
GI50 [3]: 14.4 µM
TGI [3]: 44.2 µM
GI50 [4]: 25.5 µM
TGI [4]: > 100 µM
GI50 [5]: 13 µM
TGI [5]: 26.7 µM
GI50 [6]: 18.5 µM
TGI [6]: 38.6 µM
GI50 [7]: 13.8 µM
TGI [7]: 29.3 µM
GI50 [8]: 14.9 µM
TGI [8]: 28.4 µM
GI50 [9]: 10.4 µM
TGI [9]: 30.2 µM
GI50 [10]: 15.5 µM
TGI [10]: 52.8 µM
GI50 [11]: 13.2 µM
TGI [11]: 44.6 µM
GI50 [12]: 13.1 µM
TGI [12]: > 100 µM
GI50 [13]: 7.41 µM
TGI [13]: 23.6 µM
GI50 [14]: 11.7 µM
TGI [14]: 24.7 µM
GI50 [15]: 12 µM
TGI [15]: 30.6 µM
GI50 [16]: 13.3 µM
TGI [16]: 31.1 µM
GI50 [17]: 14 µM
TGI [17]: 46.3 µM
GI50 [18]: 9.31 µM
TGI [18]: 22.9 µM
GI50 [19]: 18.4 µM
TGI [19]: 49.1 µM
GI50 [20]: 15.5 µM
TGI [20]: 46.2 µM
GI50 [21]: 16.3 µM
TGI [21]: 41.8 µM
GI50 [22]: 12.5 µM
TGI [22]: 26.7 µM
GI50 [23]: 21.6 µM
TGI [23]: 99.2 µM
GI50 [24]: 31.6 µM
TGI [24]: > 100 µM
GI50 [25]: 17.6 µM
TGI [25]: 53 µM
GI50 [26]: 13.6 µM
TGI [26]: 29.2 µM
GI50 [27]: 14.4 µM
TGI [27]: 28.9 µM
GI50 [28]: 13.8 µM
TGI [28]: 30.6 µM
GI50 [29]: 15.8 µM
TGI [29]: 45.8 µM
GI50 [30]: 11.6 µM
TGI [30]: 28.5 µM
GI50 [31]: 19.6 µM
TGI [31]: 91.6 µM
GI50 [32]: 14.4 µM
TGI [32]: 34 µM
GI50 [33]: 29.8 µM
TGI [33]: > 100 µM
GI50 [34]: 10.9 µM
TGI [34]: 27.7 µM
GI50 [35]: 50 µM
TGI [35]: > 100 µM
GI50 [36]: 19.3 µM
TGI [36]: 79.3 µM
GI50 [37]: 17.5 µM
TGI [37]: 34.9 µM
GI50 [38]: 20 µM
TGI [38]: 41.5 µM
GI50 [39]: 17.1 µM
TGI [39]: > 100 µM
GI50 [40]: 21.7 µM
TGI [40]: 77.4 µM
GI50 [41]: 12.2 µM
TGI [41]: 34.6 µM
GI50 [42]: 13.1 µM
TGI [42]: 26 µM
GI50 [43]: 21.6 µM
TGI [43]: 63.1 µM
GI50 [44]: 15.4 µM
TGI [44]: 31.9 µM
GI50 [45]: 14.6 µM
TGI [45]: 30.6 µM
GI50 [46]: 29.3 µM
TGI [46]: > 100 µM
GI50 [47]: 15.3 µM
TGI [47]: 29.8 µM
GI50 [48]: 13.6 µM
TGI [48]: 30.7 µM
GI50 [49]: 33.6 µM
TGI [49]: > 100 µM
GI50 [50]: 14.6 µM
TGI [50]: 32.8 µM
GI50 [51]: 15.8 µM
TGI [51]: 41.5 µM
GI50 [52]: 20.4 µM
TGI [52]: 87 µM
GI50 [53]: 16.1 µM
TGI [53]: 32.9 µM
GI50 [54]: 19.1 µM
TGI [54]: 37.1 µM
GI50 [55]: 10.8 µM
TGI [55]: 29.1 µM
GI50 [56]: 12.8 µM
TGI [56]: 32.4 µM
